Results: US4071627A, “2-Oximino-tetrahydro-1,4-thiazin-5-one compounds and pesticidal carbamate derivatives” (priority 1976, dated 1978)

How the values were obtained:
[1] = test system: southern armyworm (Prodenia eridania, (Cram.)); assay: Southern Armyworm Leaf Spray Test; format: in vivo; design: key: A: excellent control; B: partial control; C: no control; details: 500 ppm, three days, larvae
Method: (§1) Suspensions of the test compounds were prepared by dissolving one gram of compound in 50 milliliters of acetone in which had been dissolved 0.1 gram (10 percent of the weight of compound) of an alkylphenoxy polyethoxyethanol surfactant, as an emulsifying or dispersing agent. The resulting solution was mixed into 150 milliliters of water to give roughly 200 milliliters of a suspension containing the compound in finely divided form. The thus-prepared stock suspension contained 0.5 percent by weight of test compound. The test concentrations in parts per million by weight employed in the tests described hereinbelow were obtained by appropriate dilutions of the stock suspension with water. The test procedures were as follows:
Larvae of the southern armyworm (Prodenia eridania, (Cram.)), reared on Tendergreen bean plants at a temperature of 80°±5° F. and a relative humidity of 50±5 percent, constituted the test insects.
The test compounds were formulated by diluting the stock suspension with water to give a suspension containing 500 parts of test compound per million parts of final formulation. Potted Tendergreen bean plants of standard height and age were placed on a revolving turntable and sprayed with 100-110 milliliters of test compound formulation by use of a DeVilbiss spray gun set at 10 psig air pressure. This application, which lasted 25 seconds, was sufficient to wet plants to run-off. As a control, 100-110 milliliters of a water-acetone-emulsifier solution containing no test compound were also sprayed on infested plants. When dry, the paired leaves were separated and each one was placed in a 9 centimeter Petri dish lined with moistened filter paper. Five randomly selected larvae were introduced into each dish and the dishes were closed. The closed dishes were labeled and held at 80°-85° F. for three days. Although the larvae cound easily consume the whole leaf within 24 hours, no more food was added. Larvae which were unable to move the length of the body, even upon stimulation by prodding, were considered dead. Percent mortality was […] for various concentration levels.
(§2) In these tests the pesticidal activity of the compounds against aphid, mite, Southern Armyworm, Mexican Bean Beetle, and house fly was rated as follows: […]

[2] = test system: Mexican bean beetle (Epilachna varivestis, Muls.); assay: Mexican Bean Beetle Leaf Spray Test; format: in vivo; design: key: A: excellent control; B: partial control; C: no control; details: 500 ppm, three days, fourth instar larvae
Method: as §1
Fourth instar larvae of the Mexican bean beetle (Epilachna varivestis, Muls.), reared on Tendergreen bean plants at a temperature of 80°±5° F. and 50±5 percent relative humidity, were the test insects.
The test compounds were formulated by diluting the stock suspension with water to give a suspension containing 500 parts of test compound per million parts of final formation. Potted Tendergreen bean plants of standard height and age were placed on a revolving turntable and sprayed with 100-110 milliliters of test compound formulated by use of a DeVilbiss spray gun set at 10 psig air pressure. This application, which lasted 25 seconds, was sufficient to wet plants to run-off. As a control, 100-110 milliliters of a water-acetone-emulsifier solution containing no test compound were also sprayed on infested plants. When dry, the paired leaves were separated and each was placed in a 9 centimeter Petri dish lined with moistened filter paper. Five randomly selected larvae were introduced into each dish, and the dishes were closed. The closed dishes were labeled and held at a temperature of 80°±5° F. for three days. Although the larvae could easily consume the leaf within 24 to 48 hours, no more food was added. Larvae which were unable to move the length of the body, even upon stimulation, were considered dead.
as §2

[3] = test system: house flies (Musca domestica, L.); assay: Fly Bait Test; format: in vivo; design: key: A: excellent control; B: partial control; C: no control; details: 500 ppm, 24 hours, adults
Method: as §1
Four to six day old adult house flies (Musca domestica, L.), reared according to the specifications of the Chemical Specialities Manufacturing Association (Blue Book, McNair-Dorland Co., N.Y. 1954; pages 243-244, 261) under controlled conditions of 80°±5° F. and 50±5 percent relative humidity, were the test insects. The flies were immobilized by anesthetizing with carbon dioxide and 25 immobilized individuals, males and females, were transferred to a cage consisting of a standard food strainer about 5 inches in diameter which was inverted over a wrapping-paper-covered surface. The test compounds were formulated by diluting the stock suspension with a 10 percent (by weight) sugar solution to give a suspension containing 500 parts of test compound per million parts of final formulation, by weight. Ten milliliters of the test formulation were added to a souffle cup containing a 1-inch square of an absorbent cotton pad. This bait cup was introduced and centered on the blotting paper under the food strainer prior to admitting the anesthetized flies. The caged flies were allowed to feed on the bait for 24 hours, at a temperature of 80°±5° F. and the relative humidity of 50±5 percent.
as §2

in vivo = details: rat, po
Method: Certain of these compositions were also evaluated to determine their peroral toxicity to mammals. The animal selected for this experiment was the rat.

[4] = test system: two-spotted mite (Tetranychus urticae Koch); assay: Mite Foliage Spray Test; format: in vivo; design: key: A: excellent control; B: partial control; C: no control; details: 500 ppm, six days, adults and nymphs
Method: as §1
Adults and nymphal stages of the two-spotted mite (Tetranychus urticae Koch), reared on Tengergreen bean plants at 80±5 percent relative humidity, were the test organisms. Infested leaves from a stock culture were placed on the primary leaves of two bean plants 6 to 8 inches in height, growing in a 21/2 inch clay pot. 150-200 Mites, a sufficient number for testing, transferred from the excised leaves to the fresh plants in a period of 24 hours. Following the 24 hour transfer period, the excised leaves were removed from the infested plants. The test compounds were formulated by diluting the stock suspension with water to give a suspension containing 500 parts of test compound per million parts of final formulation. The potted plants (one pot per compound) were placed on a revolving turntable and sprayed with 100-110 milliliters of test compound formulation by use of a DeVilbiss spray gun set at 40 psig. air pressure. This application, which lasted 25 seconds, was sufficient to wet the plants to run-off. As a control, 100-110 milliliters of a water solution containing acetone and emulsifier in the same concentrations as the test compound formulation, but containing no test compound, were also sprayed on infested plants. The sprayed plants were held at 80±5 percent relative humidity for six days, after which a mortality count of motile forms was made. Microscopic examination for motile forms was made on the leaves of the test plants. Any individual which was capable of locomotion upon prodding was considering living.
as §2

[5] = test system: bean aphid (Aphis fabae Scop.); assay: Bean Aphid Foliage Spray Test; format: in vivo; design: key: A: excellent control; B: partial control; C: no control; details: 500 ppm, 24 hours, adults and nymphs
Method: as §1
Adults and nymphal stages of the bean aphid (Aphis fabae Scop.) reared on potted dwarf nasturtium plants at 65°-70° F. and 50-70 percent relative humidity, constituted the test insects. For testing purposes, the number of aphids per pot was standardized to 100-150 by trimming plants containing excess aphids.
The test compounds were formulated by diluting the stock suspension with water to give a suspension containing 500 parts of test compound per million parts of final formulation.
The potted plants (one pot per compound tested) infested with 100-150 aphids, were placed on a revolving turntable and sprayed with 100-110 milliliters of test compound formulated by use of a DeVilbiss spray gun set at 40 psig. air pressure. This application, which lasted 25 seconds, was sufficient to wet the plants to run-off. As a control, 100-110 milliliters of a water-acetone-emulsifier solution containing no test compound were also sprayed on infested plants. After spraying, the pots were placed on their sides on a sheet of white standard mimeograph paper which had been previously ruled to facilitate counting. Temperature and humidity in the test room during the 24 hour holding period were 65°-70° F. and 50-70 percent, respectively. Aphids which fell onto the paper and were unable to remain standing after being uprighted were considered dead. Aphids remaining on the plants were observed closely for movement and those which were unable to move the length of the body upon stimulation by prodding were considered dead. Percent mortality was recorded for various concentration levels.
as §2

SMILES	Biological Activity, Southern Armyworm [1]	Biological Activity, Mexican Bean Beetle [2]	Biological Activity, House Fly [3]	LD50 (in vivo)	Biological Activity, Mite [4]	Biological Activity, Aphid [5]
CNC(=O)ON=C1SCC(=O)NC1C (stereo not shown) [2-[O-(Methylcarbamoyl)oximino]-3-methyltetrahydro-1,4-thiazin-5-one]	A	A	A	5.66 mg/kg	A	B
CNC(=O)ON=C1SCC(=O)NC1(C)C [2-[O-(Methylcarbamoyl)oximino]-3,3-dimethyltetrahydro-1,4-thiazin-5-one]	A	A	A	–	A	A
CNC(=O)ON=C1SC(C)C(=O)NC1(C)C (stereo not shown) [2-[O-(Methylcarbamoyl)oximino]-3,3,6-trimethyltetrahydro-1,4-thiazin-5-one]	B	A	A	0.884 mg/kg	A	A
CNC(=O)ON=C1SCC(=O)N(CC(C)C)C1C (stereo not shown) [2-[O-(Methylcarbamoyl)oximino]-4-isobutyl-3-methyltetrahydro-1,4-thiazin-5-one]	C	C	A	–	C	C
CC1C(=NOC(=O)N(C)SC(Cl)(Cl)Cl)SCC(=O)N1C (stereo not shown) [2-[O-(N-Trichloromethanesulfenyl-N-methylcarbamoyl)oximino]-3,4-dimethyltetrahydro-1,4-thiazin-5-one]	B	A	A	3.54 mg/kg	A	B
